Test [1] has as its target T1, Plasminogen (Homo sapiens, UniProt P00747). The test can be described thus: Inhibition of plasmin (unknown origin) using Boc-Val-Leu-Lys-MCA as substrate by fluorescence analysis.
Test [2] deals with T1, Plasminogen. The experiment in a line: Inhibition of plasmin (unknown origin) assessed as relative potency using Boc-Val-Leu-Lys-MCA as substrate by fluorescence analysis.
Test [3] has as its target Urokinase-type plasminogen activator (Homo sapiens, UniProt P00749). The experiment in a line: Inhibition of urokinase (unknown origin) using Pyr-Gly-Arg-MCA as substrate by fluorescence analysis.

Bounds are passed on as bounds.

T1 sequence (P00747 97-580 limits assumed): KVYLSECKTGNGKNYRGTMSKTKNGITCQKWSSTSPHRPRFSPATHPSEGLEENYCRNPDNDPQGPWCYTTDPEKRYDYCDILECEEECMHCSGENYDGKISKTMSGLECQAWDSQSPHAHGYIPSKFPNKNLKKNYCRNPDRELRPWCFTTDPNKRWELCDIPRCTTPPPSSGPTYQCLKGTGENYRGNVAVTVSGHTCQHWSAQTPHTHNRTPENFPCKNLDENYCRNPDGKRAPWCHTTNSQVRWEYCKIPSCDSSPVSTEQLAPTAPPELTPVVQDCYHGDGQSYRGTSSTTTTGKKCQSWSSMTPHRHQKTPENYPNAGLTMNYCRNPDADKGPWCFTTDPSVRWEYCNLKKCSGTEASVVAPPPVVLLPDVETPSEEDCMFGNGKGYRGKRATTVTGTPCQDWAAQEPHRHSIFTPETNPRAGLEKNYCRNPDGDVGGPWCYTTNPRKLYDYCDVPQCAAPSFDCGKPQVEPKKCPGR
T1 sequence (P00747 581-810 limits assumed): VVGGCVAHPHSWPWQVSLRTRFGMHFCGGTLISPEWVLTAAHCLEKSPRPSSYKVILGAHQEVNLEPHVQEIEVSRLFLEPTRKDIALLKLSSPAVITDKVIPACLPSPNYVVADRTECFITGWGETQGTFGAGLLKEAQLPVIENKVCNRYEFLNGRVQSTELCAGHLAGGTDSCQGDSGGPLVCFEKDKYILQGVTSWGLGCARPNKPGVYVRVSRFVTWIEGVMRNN

In the case of `CC(C)Cn1c(=O)oc2cc(N3CC(=O)N(Cc4cc5cnc(C(=O)N[C@H](C#N)CCCCN)nc5n4C)C3=O)ccc21`, in test [1], the IC50 is above 200 µM.

Consider `N#C[C@H](CCCCN)NC(=O)c1nc2cc(CN3C(=O)CN(c4ccc(F)cc4)C3=O)ccc2o1`, for which the IC50 in test [1] was above 200 µM. In test [2], the fold change (FC) is above 14.3.

In the case of `Cn1c(CN2C(=O)CN(c3ccc(Oc4ccncc4)cc3)C2=O)nc2ccc(C(=O)N[C@H](C#N)CCCCN)cc21`, the values for the IC50 in test [1] and in test [3] were 56 µM and above 200 µM, respectively.

On to `CCCn1c(=O)oc2cc(N3CC(=O)N(Cc4cc5cnc(C(=O)N[C@H](C#N)CCCCN)nc5n4C)C3=O)ccc21`, for which it took 160 µM to reach half-maximal inhibition in test [1] (IC50).

With `Cn1c(CN2C(=O)CN(c3ccc(Oc4ccccc4)cc3)C2=O)nc2cc(C(=O)N[C@H](C#N)CCCCN)ccc21`, the 50% inhibitory concentration (IC50) in test [1] was above 200 µM.

In test [1], `CC(C)Cn1c(=O)oc2ccc(N3CC(=O)N(Cc4cc5cnc(C(=O)N[C@H](C#N)CCCCN)nc5n4C)C3=O)cc21` displayed an IC50 of 29 µM.

For `Cn1c(CN2C(=O)CN(c3ccc(Oc4ccccc4)cc3)C2=O)cc2cnc(C(=O)N[C@H](C#N)CCCCN)nc21`, the half-maximal inhibitory concentration (IC50) in test [1] was 14 µM; in test [3], above 200 µM. The fold change (FC) in test [2] is 1.

`Cn1c(CN2C(=O)CN(c3ccc4oc(=O)n(C)c4c3)C2=O)cc2cnc(C(=O)N[C@H](C#N)CCCCN)nc21` returned a 50% inhibitory concentration (IC50) in test [1] of 43 µM. For the same compound, the fold change (FC) in test [2] was determined as 3.1.

Regarding `Cn1c(CN2C(=O)CN(c3ccc4c(c3)oc(=O)n4C)C2=O)cc2cnc(C(=O)N[C@H](C#N)CCCCN)nc21`, in test [1], the midpoint of inhibition, the IC50, lay at 130 µM. For the same compound, the fold change (FC) in test [2] stood at 3.9.

Regarding `Cn1c(CN2C(=O)CN(c3ccc(F)cc3)C2=O)nc2ccc(C(=O)N[C@H](C#N)CCCCN)cc21`, the results for the IC50 in test [1] and in test [3] were 100 µM and above 200 µM, respectively.

Compound `Cn1c(CN2C(=O)CN(c3ccc(Oc4ccccc4)cc3)C2=O)nc2ccc(C(=O)N[C@H](C#N)CCCCN)cc21` returned a half-maximal inhibitory concentration (IC50) in test [1] of 25 µM.

Regarding `Cn1c(CN2C(=O)CN(c3ccc(Oc4ccncc4)cc3)C2=O)cc2cnc(C(=O)N[C@H](C#N)CCCCN)nc21`, the IC50 in test [1] is 74 µM; in test [3] it was above 200 µM.

Take `Cn1c(CN2C(=O)CN(c3ccc(F)cc3)C2=O)cc2cnc(C(=O)N[C@H](C#N)CCCCN)nc21`: the IC50 in test [1] was 43 µM; in test [3] it was above 200 µM. The fold change (FC) in test [2] was found to be 3.

For the compound `Cn1c(CN2C(=O)CN(c3ccc4oc(=O)n(Cc5ccncc5)c4c3)C2=O)cc2cnc(C(=O)N[C@H](C#N)CCCCN)nc21`, the IC50 in test [1] was 23 µM.

On to `CCCn1c(=O)oc2ccc(N3CC(=O)N(Cc4cc5cnc(C(=O)N[C@H](C#N)CCCCN)nc5n4C)C3=O)cc21`, for which, in test [1], the IC50 was found to be 26 µM.

In turn, `Cn1c(CN2C(=O)CN(c3ccc4c(c3)oc(=O)n4Cc3ccncc3)C2=O)cc2cnc(C(=O)N[C@H](C#N)CCCCN)nc21` came in with an IC50 in test [1] above 200 µM.

For orientation: IC50 means the concentration that gives 50% inhibition. Low values mean inhibition by little substance, high ones a need for much substance.

Values taken from ChEMBL document CHEMBL3585277, “Novel type of plasmin inhibitors: providing insight into P4 moiety and alternative scaffold to pyrrolopyrimidine” (Bioorg Med Chem, 2015).
